ChEMBL document CHEMBL3352227, “Synthesis, antimycobacterial and antibacterial evaluation of l-[(1R, 2S)-2-fluorocyclopropyl]fluoroquinolone derivatives containing an oxime functional moiety” (Eur J Med Chem, 2014)
Values after ≈ are worked out from the molar mass of the structure shown.

Assays:
Format in all cases: functional
Pseudomonas aeruginosa [1] = test: Antibacterial activity against Pseudomonas aeruginosa 12-14 after 18 to 24 hrs by standard twofold serial dilution method
Staphylococcus aureus [2] = test: Antibacterial activity against Staphylococcus aureus ATCC 25923 after 18 to 24 hrs by standard twofold serial dilution method
Escherichia coli [3] = test: Antibacterial activity against extended-spectrum beta-lactamase producing Escherichia coli 12-15 after 18 to 24 hrs by standard twofold serial dilution method
Staphylococcus aureus [4] = test: Antibacterial activity against methicillin-resistant Staphylococcus aureus 12-5 after 18 to 24 hrs by standard twofold serial dilution method
Klebsiella pneumoniae [5] = test: Antibacterial activity against extended-spectrum beta-lactamase producin Klebsiella pneumoniae 12-7 after 18 to 24 hrs by standard twofold serial dilution method
Klebsiella pneumoniae [6] = test: Antibacterial activity against Klebsiella pneumoniae 12-4 after 18 to 24 hrs by standard twofold serial dilution method
[7] = system: Staphylococcus epidermidis; test: Antibacterial activity against methicillin-sensitive Staphylococcus epidermidis 12-1 after 18 to 24 hrs by standard twofold serial dilution method
[8] = system: Staphylococcus epidermidis; test: Antibacterial activity against methicillin-sensitive Staphylococcus epidermidis 12-3 after 18 to 24 hrs by standard twofold serial dilution method
Klebsiella pneumoniae [9] = test: Antibacterial activity against extended-spectrum beta-lactamase producin Klebsiella pneumoniae 12-4 after 18 to 24 hrs by standard twofold serial dilution method
Streptococcus pneumoniae [10] = test: Antibacterial activity against Streptococcus pneumoniae 12-18 after 18 to 24 hrs by standard twofold serial dilution method
Staphylococcus aureus [11] = test: Antibacterial activity against methicillin-resistant Staphylococcus aureus 12-2 after 18 to 24 hrs by standard twofold serial dilution method
Escherichia coli [12] = test: Antibacterial activity against extended-spectrum beta-lactamase producing Escherichia coli 12-14 after 18 to 24 hrs by standard twofold serial dilution method
Escherichia coli [13] = test: Antibacterial activity against extended-spectrum beta-lactamase producing Escherichia coli 12-3 after 18 to 24 hrs by standard twofold serial dilution method
[14] = system: Staphylococcus epidermidis; test: Antibacterial activity against methicillin-sensitive Staphylococcus epidermidis 12-8 after 18 to 24 hrs by standard twofold serial dilution method
Staphylococcus aureus [15] = test: Antibacterial activity against methicillin-sensitive Staphylococcus aureus 12-4 after 18 to 24 hrs by standard twofold serial dilution method
Staphylococcus aureus [16] = test: Antibacterial activity against methicillin-sensitive Staphylococcus aureus 12-1 after 18 to 24 hrs by standard twofold serial dilution method
Klebsiella pneumoniae [17] = test: Antibacterial activity against extended-spectrum beta-lactamase producin Klebsiella pneumoniae 12-14 after 18 to 24 hrs by standard twofold serial dilution method
Escherichia coli [18] = test: Antibacterial activity against extended-spectrum beta-lactamase producing Escherichia coli 12-2 after 18 to 24 hrs by standard twofold serial dilution method
Escherichia coli [19] = test: Antibacterial activity against Escherichia coli ATCC 25922 after 18 to 24 hrs by standard twofold serial dilution method
Klebsiella pneumoniae [20] = test: Antibacterial activity against Klebsiella pneumoniae 12-1 after 18 to 24 hrs by standard twofold serial dilution method
Staphylococcus aureus [21] = test: Antibacterial activity against methicillin-sensitive Staphylococcus aureus 12-5 after 18 to 24 hrs by standard twofold serial dilution method
[22] = system: Mycobacterium tuberculosis; test: Antimycobacterial activity against Mycobacterium tuberculosis H37Rv ATCC 27294 by MABA method
Staphylococcus aureus [23] = test: Antibacterial activity against methicillin-sensitive Staphylococcus aureus 12-2 after 18 to 24 hrs by standard twofold serial dilution method
Pseudomonas aeruginosa [24] = test: Antibacterial activity against Pseudomonas aeruginosa 12-12 after 18 to 24 hrs by standard twofold serial dilution method
[25] = system: Staphylococcus epidermidis; test: Antibacterial activity against methicillin-resistant Staphylococcus epidermidis 12-6 after 18 to 24 hrs by standard twofold serial dilution method
[26] = system: Staphylococcus epidermidis; test: Antibacterial activity against methicillin-sensitive Staphylococcus epidermidis 12-6 after 18 to 24 hrs by standard twofold serial dilution method
Klebsiella pneumoniae [27] = test: Antibacterial activity against Klebsiella pneumoniae 12-2 after 18 to 24 hrs by standard twofold serial dilution method
[28] = system: Staphylococcus epidermidis; test: Antibacterial activity against methicillin-resistant Staphylococcus epidermidis 12-1 after 18 to 24 hrs by standard twofold serial dilution method
Escherichia coli [29] = test: Antibacterial activity against Escherichia coli 12-1 after 18 to 24 hrs by standard twofold serial dilution method
Streptococcus pneumoniae [30] = test: Antibacterial activity against Streptococcus pneumoniae ATCC 49619 after 18 to 24 hrs by standard twofold serial dilution method
Staphylococcus aureus [31] = test: Antibacterial activity against methicillin-resistant Staphylococcus aureus 12-4 after 18 to 24 hrs by standard twofold serial dilution method
Klebsiella pneumoniae [32] = test: Antibacterial activity against extended-spectrum beta-lactamase producin Klebsiella pneumoniae 12-3 after 18 to 24 hrs by standard twofold serial dilution method

Compound | MIC (Pseudomonas aeruginosa [1]) | MIC (Staphylococcus aureus [2]) | MIC (Escherichia coli [3]) | MIC (Staphylococcus aureus [4]) | MIC (Klebsiella pneumoniae [5]) | MIC (Klebsiella pneumoniae [6]) | MIC [7] | MIC [8] | MIC (Klebsiella pneumoniae [9]) | MIC (Streptococcus pneumoniae [10]) | MIC (Staphylococcus aureus [11]) | MIC (Escherichia coli [12]) | MIC (Escherichia coli [13]) | MIC [14] | MIC (Staphylococcus aureus [15]) | MIC (Staphylococcus aureus [16]) | MIC (Klebsiella pneumoniae [17]) | MIC (Escherichia coli [18]) | MIC (Escherichia coli [19]) | MIC [22] | also measured
CO/N=C1/CCN(c2nc3c(cc2F)c(=O)c(C(=O)O)cn3[C@@H]2C[C@@H]2F)CC1N (some centres not stated) | 128 µg/mL (≈ 314 µM) | 1 µg/mL (≈ 2.45 µM) | > 128 µg/mL | > 128 µg/mL | 32 µg/mL (≈ 78.6 µM) | 1 µg/mL (≈ 2.45 µM) | 1 µg/mL (≈ 2.45 µM) | < 0.008 µg/mL | 64 µg/mL (≈ 157 µM) | 4 µg/mL (≈ 9.82 µM) | > 128 µg/mL | > 128 µg/mL | 16 µg/mL (≈ 39.3 µM) | < 0.008 µg/mL | 1 µg/mL (≈ 2.45 µM) | 2 µg/mL (≈ 4.91 µM) | > 128 µg/mL | > 128 µg/mL | 0.25 µg/mL (≈ 0.614 µM) | 4 µg/mL (≈ 9.82 µM) | MIC (Klebsiella pneumoniae [20]): 2 µg/mL (≈ 4.91 µM); MIC (Staphylococcus aureus [21]): 2 µg/mL (≈ 4.91 µM); MIC (Staphylococcus aureus [23]): 2 µg/mL (≈ 4.91 µM); MIC (Pseudomonas aeruginosa [24]): 16 µg/mL (≈ 39.3 µM); MIC [25]: 1 µg/mL (≈ 2.45 µM); MIC [26]: 1 µg/mL (≈ 2.45 µM); MIC (Klebsiella pneumoniae [27]): 1 µg/mL (≈ 2.45 µM); MIC [28]: > 128 µg/mL; MIC (Escherichia coli [29]): 8 µg/mL (≈ 19.6 µM); MIC (Streptococcus pneumoniae [30]): 1 µg/mL (≈ 2.45 µM); MIC (Staphylococcus aureus [31]): > 128 µg/mL; MIC (Klebsiella pneumoniae [32]): > 128 µg/mL
CO/N=C1/CCN(c2cc3c(cc2F)c(=O)c(C(=O)O)cn3[C@@H]2C[C@@H]2F)CC1N (some centres not stated) | 32 µg/mL (≈ 78.7 µM) | 0.5 µg/mL (≈ 1.23 µM) | > 128 µg/mL | 64 µg/mL (≈ 157 µM) | 4 µg/mL (≈ 9.84 µM) | 1 µg/mL (≈ 2.46 µM) | 0.5 µg/mL (≈ 1.23 µM) | 1 µg/mL (≈ 2.46 µM) | 16 µg/mL (≈ 39.4 µM) | 2 µg/mL (≈ 4.92 µM) | 64 µg/mL (≈ 157 µM) | 128 µg/mL (≈ 315 µM) | 16 µg/mL (≈ 39.4 µM) | 2 µg/mL (≈ 4.92 µM) | 0.5 µg/mL (≈ 1.23 µM) | 0.5 µg/mL (≈ 1.23 µM) | > 128 µg/mL | > 128 µg/mL | 0.25 µg/mL (≈ 0.615 µM) | 1 µg/mL (≈ 2.46 µM) | MIC (Klebsiella pneumoniae [20]): 2 µg/mL (≈ 4.92 µM); MIC (Staphylococcus aureus [21]): 0.5 µg/mL (≈ 1.23 µM); MIC (Staphylococcus aureus [23]): 0.5 µg/mL (≈ 1.23 µM); MIC (Pseudomonas aeruginosa [24]): 4 µg/mL (≈ 9.84 µM); MIC [25]: 2 µg/mL (≈ 4.92 µM); MIC [26]: 0.5 µg/mL (≈ 1.23 µM); MIC (Klebsiella pneumoniae [27]): 1 µg/mL (≈ 2.46 µM); MIC [28]: 8 µg/mL (≈ 19.7 µM); MIC (Escherichia coli [29]): 2 µg/mL (≈ 4.92 µM); MIC (Streptococcus pneumoniae [30]): 1 µg/mL (≈ 2.46 µM); MIC (Staphylococcus aureus [31]): 128 µg/mL (≈ 315 µM); MIC (Klebsiella pneumoniae [32]): > 128 µg/mL
CO[C@H]1/C=C/O[C@@]2(C)Oc3c(C)c(O)c4c(O)c(c(/C=N/N5CCN(C)CC5)c(O)c4c3C2=O)NC(=O)/C(C)=C\C=C\[C@H](C)[C@H](O)[C@@H](C)[C@@H](O)[C@@H](C)[C@H](OC(C)=O)[C@@H]1C [RIFAMPIN] | – | – | – | – | – | – | – | – | – | – | – | – | – | – | – | – | – | – | – | 0.05 µg/mL (≈ 0.0608 µM) | –
CO/N=C1/CCN(c2c(F)cc3c(=O)c(C(=O)O)cn([C@@H]4C[C@@H]4F)c3c2Cl)CC1N (some centres not stated) | 128 µg/mL (≈ 290 µM) | 1 µg/mL (≈ 2.27 µM) | > 128 µg/mL | 32 µg/mL (≈ 72.6 µM) | 16 µg/mL (≈ 36.3 µM) | 1 µg/mL (≈ 2.27 µM) | 0.5 µg/mL (≈ 1.13 µM) | 1 µg/mL (≈ 2.27 µM) | 32 µg/mL (≈ 72.6 µM) | 8 µg/mL (≈ 18.1 µM) | 32 µg/mL (≈ 72.6 µM) | > 128 µg/mL | 32 µg/mL (≈ 72.6 µM) | 4 µg/mL (≈ 9.07 µM) | 0.25 µg/mL (≈ 0.567 µM) | 0.25 µg/mL (≈ 0.567 µM) | > 128 µg/mL | > 128 µg/mL | 1 µg/mL (≈ 2.27 µM) | 16 µg/mL (≈ 36.3 µM) | MIC (Klebsiella pneumoniae [20]): 2 µg/mL (≈ 4.54 µM); MIC (Staphylococcus aureus [21]): 0.25 µg/mL (≈ 0.567 µM); MIC (Staphylococcus aureus [23]): 0.25 µg/mL (≈ 0.567 µM); MIC (Pseudomonas aeruginosa [24]): 16 µg/mL (≈ 36.3 µM); MIC [25]: 32 µg/mL (≈ 72.6 µM); MIC [26]: 0.5 µg/mL (≈ 1.13 µM); MIC (Klebsiella pneumoniae [27]): 2 µg/mL (≈ 4.54 µM); MIC [28]: 16 µg/mL (≈ 36.3 µM); MIC (Escherichia coli [29]): 2 µg/mL (≈ 4.54 µM); MIC (Streptococcus pneumoniae [30]): 1 µg/mL (≈ 2.27 µM); MIC (Staphylococcus aureus [31]): 64 µg/mL (≈ 145 µM); MIC (Klebsiella pneumoniae [32]): > 128 µg/mL
